In patent US10350199B2, “3-(1h-pyrrolo[2,3-b]pyridin-2-yl)-1h-indazoles and therapeutic uses thereof” (Samumed, LLC, priority 2015, dated 2019):

What was measured:
Format in all cases: cell-based
[1] = test system: IL-6 (THP-1 human monocyte cell line); assay: IL-6 inhibition in LPS-stimulated THP-1 cells (HTRF); details: for EC50: IL-6 inhibition, LPS-stimulated THP-1 cells, HTRF; for inhibition at 10 µM: THP-1, read-out: percentage in parentheses beside EC50 >10 (IL-6 inhibition)
Outline: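 After 24 h in 1% FBS medium, cells had compound 2 h before 500 ng/mL LPS, then 22 h more at 37 °C. DMSO-normalized HTRF signal (665/620 nm ratio, anti-IL-6 antibody pair) was fitted with a variable-slope four-parameter model to give EC50.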

[2] = test system: primary human fibroblasts derived from IPF patients (LL29 cells) treated with TGF-β1; assay: Inhibition of the fibrotic process: αSMA staining in TGF-β1 treated LL29 fibroblasts; details: Fibroblast; for EC50: 96 h, LL29 cells, TGF-β1 20 ng/mL, 4 days, % αSMA positive cells; for inhibition at 10 µM: read-out: percent inhibition at 10 μM
Outline: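 Read-out after 4-day incubation: αSMA staining with 1 μM SYTOX green nuclear counterstain (30 min, room temperature). Cells were LL29 primary fibroblasts from IPF patients, in 1% FBS F12, exposed to TGF-β1 with test compound, referenced to TGF-β1/DMSO control wells.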

[3] = test system: Wnt activity (Sp5-Luc reporter, SW480 colon carcinoma cells); assay: Wnt activity screening assay, Sp5-Luc reporter gene in SW480 cells; details: Homo sapiens; for EC50: Sp5-Luc reporter, SW480 cells, overnight incubation; for inhibition at 10 µM: SW480, read-out: percent inhibition at 10 μM
Outline: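 Read-out is BrightGlo luminescence, normalized to DMSO-treated cells and fitted by four-parameter variable-slope regression for EC50. Reporter cells: SW480 colon carcinoma carrying a stable lentiviral Sp5-Luc construct with eight TCF/LEF sites, seeded 4,000/well in 1% FBS, incubated overnight at 37° C.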

SW480 colon cancer cells = assay: Cell viability assay (CellTiter-Blue), SW480 cells, four days; details: Homo sapiens; for EC50: 96 h, SW480 cell viability, four days, CellTiter-Blue; for inhibition at 10 µM: SW480, read-out: percent inhibition at 10 μM
Outline: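 Fluorescence from resazurin reduced to resorufin by metabolically active cells was the read-out, taken after ~3 h with CellTiter-Blue.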

[4] = test system: primary human mesenchymal stem cells (hMSCs); assay: Induction of chondrogenesis in human mesenchymal stem cells (nodule area, Rhodamine B/Nile Red); details: hMSC chondrogenesis; for Emax: relative to TGF-β3 (10 ng/mL) positive control, read-out: Max. Activity as % TGF-β3 activity; for EC50: concentration required to induce 50% levels of chondrogenesis of TGF-β3 positive control, read-out: Conc (nM) of 50% TGF-β3 activity
Excerpt: Representative compounds were screened using primary human mesenchymal stem cells (hMSCs) to determine their ability to induce chondrogenesis (process by which cartilage is developed).
Primary human mesenchymal stem cells (hMSCs) were purchased from Lonza (Walkersville, Md.) and expanded in Mesenchymal Stem Cell Growth Media (Lonza). Cells between passage 3 and 6 were used for the experiments.
Area of nodules in each well was normalized to the average of 3 DMSO treated wells on the same plate using Excel (Microsoft Inc.). The normalized averages (fold change over DMSO) of 2 or 3 replicate wells for each compound concentration were calculated. Due to solubility limitations of some of the compounds, curve fitting was incomplete leading to inaccurate EC50 determinations.
Using TGF-β3 as a positive control, the concentration of representative compounds required to induce 50% levels of chondrogenesis is reported. In addition, the maximum activity of each compound and the respective dose that each compound reached maximum chondrogenesis activity is reported.

Compound	EC50 [1] [nM]	EC50 [3] [nM]	EC50 (SW480 colon cancer cells) [nM]	EC50 [4] [nM]	EC50 [2] [nM]	Emax [4] [%]	inhibition at 10 µM [1] [%]	inhibition at 10 µM [2] [%]	inhibition at 10 µM [3] [%]	inhibition at 10 µM (SW480 colon cancer cells) [%]
CCC(=O)Nc1cncc(-c2ccc3[nH]nc(-c4cc5c(-c6cccc(F)c6)ccnc5[nH]4)c3c2)c1 [Compound 1, N-(5-(3-(4-(3-Fluorophenyl)-1H-pyrrolo[2,3-b]pyridin-2-yl)-1H-indazol-5-yl)pyridin-3-yl)propionamide]	6140	13	1030	100	141	167				
COc1cncc(-c2ccc3[nH]nc(-c4cc5c(-c6ccoc6)ccnc5[nH]4)c3c2)c1 [Compound 692, 3-(4-(Furan-3-yl)-1H-pyrrolo[2,3-b]pyridin-2-yl)-5-(5-methoxypyridin-3-yl)-1H-indazole]	> 10000	> 10000	> 10000		> 10000	26	43.9	0	20	0
CN(C)Cc1cncc(-c2cc3c(-c4cc5c(-c6cccc(F)c6)ccnc5[nH]4)n[nH]c3cc2F)c1 [Compound 993, 1-(5-(6-Fluoro-3-(4-(3-fluorophenyl)-1H-pyrrolo[2,3-b]pyridin-2-yl)-1H-indazol-5-yl)pyridin-3-yl)-N,N-dimethylmethanamine]	852	> 10000	2400		1630	28				
CN(C)c1cncc(-c2ccc3[nH]nc(-c4cc5c(-c6ccccn6)ccnc5[nH]4)c3c2)c1 [Compound 147, N,N-Dimethyl-5-(3-(4-(pyridin-2-yl)-1H-pyrrolo[2,3-b]pyridin-2-yl)-1H-indazol-5-yl)pyridin-3-amine]	> 10000	> 10000	> 10000	10	> 10000	77	30.5	34	13.7	15.4
Fc1ccc(-c2ccnc3[nH]c(-c4n[nH]c5ccc(-c6cncnc6)cc45)cc23)cc1 [Compound 55, 3-(4-(4-Fluorophenyl)-1H-pyrrolo[2,3-b]pyridin-2-yl)-5-(pyrimidin-5-yl)-1H-indazole]	> 10000	> 10000	> 10000	2700	> 10000	82	25.6	7.3	11.7	17.3
Cc1ccncc1-c1ccc2[nH]nc(-c3cc4c(-c5ccccc5F)ccnc4[nH]3)c2c1 [Compound 61, 3-(4-(2-Fluorophenyl)-1H-pyrrolo[2,3-b]pyridin-2-yl)-5-(4-methylpyridin-3-yl)-1H-indazole]	> 10000	> 10000	> 10000	30	450	54	22.7		3.5	14.9
Nc1cncc(-c2ccc3[nH]nc(-c4cc5c(-c6ccccc6F)ccnc5[nH]4)c3c2)c1 [Compound 59, 5-(3-(4-(2-Fluorophenyl)-1H-pyrrolo[2,3-b]pyridin-2-yl)-1H-indazol-5-yl) pyridin-3-amine]	> 10000	131	399		592	24	31.6			
CC(C)C(=O)Nc1cncc(-c2ccc3[nH]nc(-c4cc5cccnc5[nH]4)c3c2)c1 [Compound 261, N-(5-(3-(1H-Pyrrolo[2,3-b]pyridin-2-yl)-1H-indazol-5-yl)pyridin-3-yl) isobutyramide]	9	178	405	900	102	131				
CN(C)Cc1cncc(-c2ccc3[nH]nc(-c4cc5c(-c6ccncc6)ccnc5[nH]4)c3c2)c1 [Compound 125, N,N-Dimethyl-1-(5-(3-(4-(pyridin-4-yl)-1H-pyrrolo[2,3-b]pyridin-2-yl)-1H-indazol-5-yl)pyridin-3-yl)methanamine]	> 10000	> 10000	> 10000		> 10000	37	49.7	0	29.7	7.4

Continued, in another order:

EC50 [1] [nM]	EC50 [3] [nM]	EC50 (SW480 colon cancer cells) [nM]	EC50 [4] [nM]	Compound	EC50 [2] [nM]	Emax [4] [%]	inhibition at 10 µM [1] [%]	inhibition at 10 µM [2] [%]	inhibition at 10 µM [3] [%]	inhibition at 10 µM (SW480 colon cancer cells) [%]
18	271	656		O=C(Nc1cncc(-c2ccc3[nH]nc(-c4cc5cccnc5[nH]4)c3c2)c1)C1CCCC1 [Compound 274, N-(5-(3-(1H-Pyrrolo[2,3-b]pyridin-2-yl)-1H-indazol-5-yl)pyridin-3-yl) cyclopentanecarboxamide]	427	30				
> 10000	> 10000	> 10000	30	c1cc(-c2ccsc2)c2cc(-c3n[nH]c4ccc(-c5cncc(CN6CCCCC6)c5)cc34)[nH]c2n1 [Compound 295, 5-(5-(Piperidin-1-ylmethyl)pyridin-3-yl)-3-(4-(thiophen-3-yl)-1H-pyrrolo[2,3-b]pyridin-2-yl)-1H-indazole]	> 10000	73	34.9	16.8	37.1	2.1
> 10000	3480	4340		CN1CCN(c2ccnc3[nH]c(-c4n[nH]c5ccc(-c6cncc(CN7CCCC7)c6)cc45)cc23)CC1 [Compound 238, 3-(4-(4-Methylpiperazin-1l-yl)-1H-pyrrolo[2,3-b]pyridin-2-yl)-5-(5-(pyrrolidin-1-ylmethyl)pyridin-3-yl)-1H-indazole]	1920	22	29.4			
> 10000	> 10000	> 10000	2700	c1cncc(-c2ccc3[nH]nc(-c4cc5c(N6CCCCC6)ccnc5[nH]4)c3c2)c1 [Compound 172, 3-(4-(Piperidin-1-yl)-1H-pyrrolo[2,3-b]pyridin-2-yl)-5-(pyridin-3-yl)-1H-indazole]	> 10000	162	31.8	25.1	48.2	8.9
561	> 10000	> 10000		CCNCc1cncc(-c2ccc3[nH]nc(-c4cc5c(-c6cccnc6)ccnc5[nH]4)c3c2)c1 [Compound 90, N-((5-(3-(4-(Pyridin-3-yl)-1H-pyrrolo[2,3-b]pyridin-2-yl)-1H-indazol-5-yl)pyridin-3-yl)methyl)ethanamine]	> 10000	29		0	28.6	31.3
648	> 10000	> 10000		c1cncc(-c2ccc3[nH]nc(-c4cc5c(-c6cccnc6)ccnc5[nH]4)c3c2)c1 [Compound 88, 5-(Pyridin-3-yl)-3-(4-(pyridin-3-yl)-1H-pyrrolo[2,3-b]pyridin-2-yl)-1H-indazole]	> 10000	17		0	48.8	11.2
> 10000	> 10000	> 10000	30	c1cncc(-c2ccnc3[nH]c(-c4n[nH]c5ccc(-c6cncc(CN7CCCCC7)c6)cc45)cc23)c1 [Compound 99, 5-(5-(Piperidin-1-ylmethyl)pyridin-3-yl)-3-(4-(pyridin-3-yl)-1H-pyrrolo[2,3-b]pyridin-2-yl)-1H-indazole]	> 10000	62	0	4	18.6	50.6
> 10000	> 10000	> 10000		Cc1ccncc1-c1ccc2[nH]nc(-c3cc4c(-c5ccncc5)ccnc4[nH]3)c2c1 [Compound 117, 5-(4-Methylpyridin-3-yl)-3-(4-(pyridin-4-yl)-1H-pyrrolo[2,3-b]pyridin-2-yl)-1H-indazole]	> 10000	44	31.5	44.2	31.8	4.6
